# What was measured:
# [1] = biological target: T1, Protein deacetylase HDAC6 (Homo sapiens, UniProt Q9UBN7); type: ADME
# T1 sequence (Q9UBN7 whole entry): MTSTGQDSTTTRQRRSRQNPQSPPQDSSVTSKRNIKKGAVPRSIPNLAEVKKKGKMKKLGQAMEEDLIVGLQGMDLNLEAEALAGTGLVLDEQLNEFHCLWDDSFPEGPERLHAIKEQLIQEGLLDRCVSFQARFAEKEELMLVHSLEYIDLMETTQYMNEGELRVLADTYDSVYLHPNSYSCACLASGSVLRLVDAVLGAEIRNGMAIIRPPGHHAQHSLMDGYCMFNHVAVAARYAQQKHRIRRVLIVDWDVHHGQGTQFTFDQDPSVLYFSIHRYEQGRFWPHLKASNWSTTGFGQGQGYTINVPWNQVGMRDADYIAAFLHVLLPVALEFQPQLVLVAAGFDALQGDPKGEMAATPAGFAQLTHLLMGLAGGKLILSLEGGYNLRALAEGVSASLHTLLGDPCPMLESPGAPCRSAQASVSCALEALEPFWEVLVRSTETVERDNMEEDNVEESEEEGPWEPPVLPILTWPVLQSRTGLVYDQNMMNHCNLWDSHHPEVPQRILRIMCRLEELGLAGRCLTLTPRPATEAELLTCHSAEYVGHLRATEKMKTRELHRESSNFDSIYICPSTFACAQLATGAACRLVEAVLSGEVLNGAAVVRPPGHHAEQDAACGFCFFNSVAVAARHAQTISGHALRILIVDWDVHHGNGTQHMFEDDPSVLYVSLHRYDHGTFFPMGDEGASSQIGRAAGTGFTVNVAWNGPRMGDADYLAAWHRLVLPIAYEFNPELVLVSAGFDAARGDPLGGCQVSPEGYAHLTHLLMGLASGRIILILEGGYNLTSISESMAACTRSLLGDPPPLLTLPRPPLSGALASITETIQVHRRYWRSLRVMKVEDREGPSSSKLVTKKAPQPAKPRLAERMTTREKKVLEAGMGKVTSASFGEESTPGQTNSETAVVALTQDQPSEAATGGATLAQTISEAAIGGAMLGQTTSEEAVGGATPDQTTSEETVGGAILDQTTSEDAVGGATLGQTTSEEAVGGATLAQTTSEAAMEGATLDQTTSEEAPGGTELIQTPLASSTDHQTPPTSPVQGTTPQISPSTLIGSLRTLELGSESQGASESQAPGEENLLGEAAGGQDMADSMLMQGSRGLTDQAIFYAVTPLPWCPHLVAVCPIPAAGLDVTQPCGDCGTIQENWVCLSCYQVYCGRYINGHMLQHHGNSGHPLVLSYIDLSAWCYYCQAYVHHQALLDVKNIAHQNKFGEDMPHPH
# Description: Inhibition of HDAC6 (unknown origin)
# Histone deacetylase 8 = biological target: T2, Histone deacetylase 8 (Homo sapiens, UniProt Q9BY41); type: ADME
# T2 sequence (Q9BY41 whole entry): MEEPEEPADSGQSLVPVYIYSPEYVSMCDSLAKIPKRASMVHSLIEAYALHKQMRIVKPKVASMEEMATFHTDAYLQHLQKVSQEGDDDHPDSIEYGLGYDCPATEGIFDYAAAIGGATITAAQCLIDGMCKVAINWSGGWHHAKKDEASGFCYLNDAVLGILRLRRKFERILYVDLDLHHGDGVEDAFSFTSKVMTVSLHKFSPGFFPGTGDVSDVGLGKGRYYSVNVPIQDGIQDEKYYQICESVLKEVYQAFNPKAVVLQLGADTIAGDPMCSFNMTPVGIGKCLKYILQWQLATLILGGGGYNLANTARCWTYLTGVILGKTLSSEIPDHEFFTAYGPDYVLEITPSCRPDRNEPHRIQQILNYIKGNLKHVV
# Description: Inhibition of HDAC8 (unknown origin)
# [2] = test system: Human immunodeficiency virus; experiment: microbe, parasite or virus in culture; type: functional, organism-based; details: Human immunodeficiency virus 1, 2C4
# Description: Reactivation of HIV latency infected in human 2C4 cells in presence of 0.1 % NHS by luciferase reporter gene assay
# [3] = test system: Human immunodeficiency virus; experiment: microbe, parasite or virus in culture; type: functional, organism-based; details: Human immunodeficiency virus 1, 2C4; remark: listed apart in the source
# Histone deacetylase 1 = Histone deacetylase 1 (Homo sapiens, UniProt Q13547)
# Histone deacetylase 1, sequence (Q13547 whole entry): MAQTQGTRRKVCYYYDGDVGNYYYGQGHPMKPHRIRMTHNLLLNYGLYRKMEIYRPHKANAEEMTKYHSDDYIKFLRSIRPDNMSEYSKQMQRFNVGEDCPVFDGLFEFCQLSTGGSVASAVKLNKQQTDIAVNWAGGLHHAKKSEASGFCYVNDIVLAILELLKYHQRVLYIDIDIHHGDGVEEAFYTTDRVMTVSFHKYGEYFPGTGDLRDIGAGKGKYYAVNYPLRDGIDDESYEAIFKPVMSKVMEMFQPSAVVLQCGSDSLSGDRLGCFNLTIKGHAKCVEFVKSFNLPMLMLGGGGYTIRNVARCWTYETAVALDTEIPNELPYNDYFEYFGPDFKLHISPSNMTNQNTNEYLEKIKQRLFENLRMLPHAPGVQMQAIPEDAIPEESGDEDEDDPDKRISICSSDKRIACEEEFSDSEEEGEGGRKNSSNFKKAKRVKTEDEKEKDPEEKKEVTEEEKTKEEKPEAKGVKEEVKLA
# Description: Inhibition of HDAC1 (unknown origin)
# Histone deacetylase 2 = Histone deacetylase 2 (Homo sapiens, UniProt Q92769)
# Histone deacetylase 2, sequence (Q92769 whole entry): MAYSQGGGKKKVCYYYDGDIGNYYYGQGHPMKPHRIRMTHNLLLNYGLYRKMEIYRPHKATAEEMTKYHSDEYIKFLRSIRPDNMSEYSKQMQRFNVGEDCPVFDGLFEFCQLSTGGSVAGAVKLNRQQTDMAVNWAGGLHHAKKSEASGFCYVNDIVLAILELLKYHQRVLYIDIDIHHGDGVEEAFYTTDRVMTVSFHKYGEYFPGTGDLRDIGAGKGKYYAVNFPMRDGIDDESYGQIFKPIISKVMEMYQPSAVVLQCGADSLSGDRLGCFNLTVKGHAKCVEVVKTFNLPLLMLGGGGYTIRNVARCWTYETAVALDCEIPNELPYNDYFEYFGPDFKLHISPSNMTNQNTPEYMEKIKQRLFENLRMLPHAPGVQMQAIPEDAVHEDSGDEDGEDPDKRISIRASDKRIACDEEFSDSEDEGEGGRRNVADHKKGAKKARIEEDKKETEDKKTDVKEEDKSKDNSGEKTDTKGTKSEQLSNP
# Description: Inhibition of HDAC2 (unknown origin)
# [4] = AUC in Wistar Han rat at 10 mg/kg, po; type: ADME, organism-based; details: in vivo
# [5] = Cmax in Wistar Han rat at 10 mg/kg, po; type: ADME, organism-based; set-up: dose 10 mg/kg, route oral; details: in vivo
# [6] = Half life in Wistar Han rat at 2 mg/kg, iv or 10 mg/kg, po; type: ADME, organism-based; details: in vivo
# [7] = Clearance in Wistar Han rat at 2 mg/kg, iv or 10 mg/kg, po; type: ADME, organism-based; details: in vivo
# [8] = Oral bioavailability in Wistar Han rat at 10 mg/kg; type: ADME, organism-based; details: in vivo
# [9] = AUC in Wistar Han rat at 5 mg/kg, po; type: ADME, organism-based; details: in vivo
# [10] = Cmax in Wistar Han rat at 5 mg/kg, po; type: ADME, organism-based; set-up: dose 5 mg/kg, route oral; details: in vivo
# [11] = Oral bioavailability in Wistar Han rat at 5 mg/kg; type: ADME, organism-based; details: in vivo
# [12] = Half life in Wistar Han rat at 2 mg/kg, iv or 5 mg/kg, po; type: ADME, organism-based; details: in vivo
# [13] = Clearance in Wistar Han rat at 2 mg/kg, iv or 5 mg/kg, po; type: ADME, organism-based; details: in vivo
# [14] = AUC in Beagle dog at 2 mg/kg, po; type: ADME, organism-based, Canis lupus familiaris; details: in vivo
# [15] = Cmax in Beagle dog at 2 mg/kg, po; type: ADME, organism-based, Canis lupus familiaris; set-up: dose 2 mg/kg, route oral; details: in vivo
# [16] = Half life in Beagle dog at 1 mg/kg, iv or 2 mg/kg, po; type: ADME, organism-based, Canis lupus familiaris; details: in vivo
# [17] = Clearance in Beagle dog at 1 mg/kg, iv or 2 mg/kg, po; type: ADME, organism-based, Canis lupus familiaris; details: in vivo
# [18] = Oral bioavailability in Beagle dog at 2 mg/kg; type: ADME, organism-based, Canis lupus familiaris; details: in vivo
SMILES,IC50 [1] [nM],IC50 (Histone deacetylase 8) [nM],EC50 [2] [nM],EC50 [3] [nM],further results
CCC(=O)CCCCC[C@H](NC(=O)[C@@H]1CC12CCC(N(C)C)CC2)c1ncc(-c2cc3ccccc3nc2OC)[nH]1 (some centres not stated),759,5580,441,1140,
CCC(=O)CCCCC[C@H](NC(=O)[C@H]1CC12CCN(C)CC2)c1nnc(-c2cc3ccccc3nc2OC)o1,,45000,689,691,
CCC(=O)CCCCC[C@H](NC(=O)[C@H]1CC12CCN(C)CC2)c1nnc(-c2cc3ccccc3nc2OC)[nH]1,92,1930,1620,2580,
CCC(=O)CCCCC[C@H](NC(=O)[C@H]1CC12CCN(C)CC2)c1ncc(-c2cc3ccccc3nc2OC)o1,,,194,310,IC50 (Histone deacetylase 1): 1.5 nM; IC50 (Histone deacetylase 2): 4.7 nM; AUC [4]: 6.77 µM·h; Cmax [5]: 700 nM; half-life [6]: 3.2 h; clearance [7]: 11 mL/min/kg; bioavailability [8]: 20.6%
CCC(=O)CCCCC[C@H](NC(=O)[C@H]1CC12CCN(CC)CC2)c1ncc(-c2cc3ccccc3nc2OC)o1,,,111,151,AUC [4]: 14 µM·h; Cmax [5]: 1430 nM; half-life [6]: 8.6 h; clearance [7]: 15 mL/min/kg; bioavailability [8]: 68.9%
CCC(=O)CCCCC[C@H](NC(=O)[C@H]1CC12CCN(CC)CC2)c1ncc(-c2cc3ccccc3nc2OC)[nH]1,,,,,AUC [9]: 1.13 µM·h; Cmax [10]: 260 nM; bioavailability [11]: 5.8%; half-life [12]: 3 h; clearance [13]: 7.2 mL/min/kg
CCC(=O)CCCCC[C@H](NC(=O)[C@H]1CC12CCN(C(C)C)CC2)c1ncc(-c2cc3ccccc3nc2OC)o1,,,161,309,IC50 (Histone deacetylase 1): 3.5 nM
CCC(=O)CCCCC[C@H](NC(=O)[C@H]1CC12CCN(C)CC2)c1ncc(-c2cc3ccccc3nc2OC)[nH]1,157,,26,83,AUC [4]: 2.1 µM·h; Cmax [5]: 630 nM; half-life [6]: 6.6 h; clearance [7]: 22 mL/min/kg; bioavailability [8]: 13%; AUC [14]: 1.8 µM·h; Cmax [15]: 690 nM; half-life [16]: 7.2 h; clearance [17]: 8.5 mL/min/kg; bioavailability [18]: 22.4%
CCC(=O)CCCCC[C@H](NC(=O)[C@H]1CC12CCN(CC)CC2)c1nnc(-c2cc3ccccc3nc2OC)[nH]1,95,2990,1230,1880,
CCC(=O)CCCCC[C@H](NC(=O)[C@H]1CC12CN(C)C2)c1ncc(-c2cc3ccccc3nc2OC)[nH]1,299,2020,155,633,
CCC(=O)CCCCC[C@H](NC(=O)[C@H]1CC12CCN(C(C)=O)CC2)c1ncc(-c2cc3ccccc3nc2OC)[nH]1,1170,2270,1560,9850,
CCC(=O)CCCCC[C@H](NC(=O)[C@@H]1C[C@]12CCN(C)C2)c1ncc(-c2cc3ccccc3nc2OC)[nH]1,149,,261,1140,
CCC(=O)CCCCC[C@H](NC(=O)C1=NOC2(CCN(C)CC2)C1)c1ncc(-c2cc3ccccc3nc2OC)[nH]1,,,126,941,IC50 (Histone deacetylase 2): 5.2 nM
CCC(=O)CCCCC[C@H](NC(=O)[C@@H]1CCC12CCN(CC)CC2)c1ncc(-c2cc3ccccc3nc2OC)[nH]1,518,2330,161,720,
CCC(=O)CCCCC[C@H](NC(=O)CC1CC2(C1)CN(C)C2)c1ncc(-c2cc3ccccc3nc2OC)[nH]1,,,130,810,IC50 (Histone deacetylase 1): 1 nM
CCC(=O)CCCCC[C@H](NC(=O)[C@H]1CC12CCC(N(C)C)CC2)c1ncc(-c2cc3ccccc3nc2OC)[nH]1 (some centres not stated),363,75,36,60,
